Data as given in patent US7348427B2, “Antipathogenic benzamide compounds” (Genesoft Pharmaceuticals, Inc., priority 2001, dated 2008).
Values after ≈ are worked out from the molar mass of the structure shown.

What was measured:
S. pneumoniae ATCC 49619 = assay: MIC, NCCLS broth microdilution assay; type: cell-based, Streptococcus pneumoniae; conditions: H = S. pneumoniae ATCC 49619
In short: (§1)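 Broth microdilution per NCCLS M7-A4 (1997) guidelines; MIC recorded as minimal inhibitory concentration.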

[1] = system: Candida albicans (ATCC 38247); assay: Antifungal MIC assay; type: cell-based; conditions: B = C. albicans ATCC 38247
In short: (§2)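 MICs were determined by broth microdilution following NCCLS documents M7-A4, M11-A4 and M27-T. The antifungal assay followed the method in the Manual of Clinical Microbiology (1995).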

E. faecalis ATCC 29212 = assay: MIC, NCCLS broth microdilution assay; type: cell-based, Enterococcus faecalis; conditions: C = E. faecalis ATCC 29212
In short: as §1

[2] = system: Staphylococcus aureus (ATCC 13709, a methicillin sensitive strain (MSSA)); assay: MIC, NCCLS broth microdilution assay; type: cell-based; conditions: E = S. aureus ATCC 13709
In short: as §2

[3] = system: Staphylococcus aureus (ATCC 27660, a methicillin resistant strain (MRSA)); assay: MIC, NCCLS broth microdilution assay; type: cell-based; conditions: F = S. aureus ATCC 27660
In short: as §2

[4] = system: Bacillus cereus (ATCC 11778); assay: MIC, NCCLS broth microdilution assay; type: cell-based; conditions: A = B. cereus ATCC 11778
In short: as §2

[5] = Staphylococcus aureus, read-out: Minimum Inhibitory Concentration (MIC)

MIC (S. pneumoniae ATCC 49619; Streptococcus pneumoniae, ATCC49619, read-out: Minimum Inhibitory Concentration (MIC)) [µg/mL]	MIC ([1]; Candida albicans, ATCC38247, read-out: Minimum Inhibitory Concentration (MIC)) [µg/mL]	MIC (E. faecalis ATCC 29212; Enterococcus faecalis, ATCC29212, read-out: Minimum Inhibitory Concentration (MIC)) [µg/mL]	MIC [2, 5] [µg/mL]	MIC [3, 5] [µg/mL]	MIC ([4]; Bacillus cereus, ATCC11778, read-out: Minimum Inhibitory Concentration (MIC)) [µg/mL]	Structure (SMILES)	Minimum Inhibitory Concentration (MIC) (S. pneumoniae ATCC 49619)	Minimum Inhibitory Concentration (MIC) [1]	Minimum Inhibitory Concentration (MIC) (E. faecalis ATCC 29212)	Minimum Inhibitory Concentration (MIC) [2]	Minimum Inhibitory Concentration (MIC) [3]	Minimum Inhibitory Concentration (MIC) [4]
–	–	–	–	–	–	Cn1cc(NC(=O)c2cc(NC(=O)c3cc(NC(=O)c4ccc(F)cc4NCCCNC4CCCCC4)cn3C)cn2C)cc1C(N)=O [Compound B-51]	+ (+ = 12 ≦ MIC ≦ 32)	>32 µg/mL	>32 µg/mL	++ (++ = 4 < MIC < 12)	+ (+ = 12 ≦ MIC ≦ 32)	++ (++ = 4 < MIC < 12)
–	–	–	–	–	–	Cn1cc(NC(=O)c2cc(NC(=O)c3ccc(Cl)c(Cl)c3)cn2C)cc1C(=O)NCCN1CCOCC1 [Compound B-54]	+++ (+++ = MIC ≦ 4)	>32 µg/mL	++ (++ = 4 < MIC < 12)	+++ (+++ = MIC ≦ 4)	++ (++ = 4 < MIC < 12)	++ (++ = 4 < MIC < 12)
–	–	–	–	–	–	Cn1cc(NC(=O)c2cc(NC(=O)c3cc(NC(=O)c4ccc(Cl)cc4NCCCNC4CCCCC4)cn3C)cn2C)cc1C(N)=O [Compound B-63]	+++ (+++ = MIC ≦ 4)	>32 µg/mL	>32 µg/mL	+++ (+++ = MIC ≦ 4)	+++ (+++ = MIC ≦ 4)	+ (+ = 12 ≦ MIC ≦ 32)
–	–	–	–	–	–	Cn1cc(NC(=O)c2cc(NC(=O)c3cc(NC(=O)c4ccc(Cl)cc4NCCN4CCCCC4)cn3C)cn2C)cc1C(N)=O [Compound B-65]	++ (++ = 4 < MIC < 12)	>32 µg/mL	+ (+ = 12 ≦ MIC ≦ 32)	+ (+ = 12 ≦ MIC ≦ 32)	++ (++ = 4 < MIC < 12)	++ (++ = 4 < MIC < 12)
–	–	–	–	–	–	Cn1cc(NC(=O)c2cc(NC(=O)c3ccc(C#N)cc3)cn2C)cc1C(=O)NCCN1CCOCC1 [Compound B-69]	+++ (+++ = MIC ≦ 4)	>32 µg/mL	+ (+ = 12 ≦ MIC ≦ 32)	+ (+ = 12 ≦ MIC ≦ 32)	>32 µg/mL	+ (+ = 12 ≦ MIC ≦ 32)
–	–	–	–	–	–	Cn1cc(NC(=O)c2cc(NC(=O)c3cc(NC(=O)c4ccc(F)cc4F)cn3C)cn2C)cc1C(=O)NCCc1ccccn1 [Compound B-82]	+++ (+++ = MIC ≦ 4)	>32 µg/mL	+++ (+++ = MIC ≦ 4)	+++ (+++ = MIC ≦ 4)	+++ (+++ = MIC ≦ 4)	+++ (+++ = MIC ≦ 4)
–	–	–	–	–	–	Cn1cc(NC(=O)c2cc(NC(=O)c3cc(NC(=O)c4ccc(Br)cc4F)cn3C)cn2C)cc1C(=O)NCCN1CCOCC1 [Compound B-83]	+++ (+++ = MIC ≦ 4)	>32 µg/mL	+++ (+++ = MIC ≦ 4)	+++ (+++ = MIC ≦ 4)	+++ (+++ = MIC ≦ 4)	+++ (+++ = MIC ≦ 4)
–	–	–	–	–	–	Cn1cc(NC(=O)c2cc(NC(=O)c3cc(NC(=O)c4ccc(OC(F)F)cc4)cn3C)cn2C)cc1C(=O)NCCN1CCCC1 [Compound B-84]	+++ (+++ = MIC ≦ 4)	+ (+ = 12 ≦ MIC ≦ 32)	+++ (+++ = MIC ≦ 4)	+++ (+++ = MIC ≦ 4)	+++ (+++ = MIC ≦ 4)	+++ (+++ = MIC ≦ 4)
–	–	–	–	–	–	Cn1cc(NC(=O)c2cc(NC(=O)c3cc(NC(=O)c4ccc(OC(F)F)cc4)cn3C)cn2C)cc1C(=O)NCCN1CCCCC1 [Compound B-85]	+++ (+++ = MIC ≦ 4)	+ (+ = 12 ≦ MIC ≦ 32)	+++ (+++ = MIC ≦ 4)	+++ (+++ = MIC ≦ 4)	+++ (+++ = MIC ≦ 4)	+++ (+++ = MIC ≦ 4)
–	–	–	–	–	–	Cn1cc(NC(=O)c2cc(NC(=O)c3cc(NC(=O)c4ccc(OC(F)F)cc4)cn3C)cn2C)cc1C(=O)NCCN1CCSCC1 [Compound B-86]	+++ (+++ = MIC ≦ 4)	>32 µg/mL	+++ (+++ = MIC ≦ 4)	+++ (+++ = MIC ≦ 4)	+++ (+++ = MIC ≦ 4)	+++ (+++ = MIC ≦ 4)
≤ 4	> 32	4 to 12 (≈ 6.42 to 19.3 µM)	4 to 12 (≈ 6.42 to 19.3 µM)	12 to 32 (≈ 19.3 to 51.4 µM)	12 to 32 (≈ 19.3 to 51.4 µM)	Cn1cc(NC(=O)c2ccc(F)cc2F)cc1C(=O)Nc1cc(C(=O)Nc2c[nH]c(C(=O)NCCN3CCOCC3)c2)n(C)c1 [Compound C-1]	–	–	–	–	–	–
–	–	–	–	–	–	Cn1cc(NC(=O)c2cc(NC(=O)c3cc(NC(=O)c4ccc(F)cc4F)cn3C)c[nH]2)cc1C(=O)NCCN1CCOCC1 [Compound C-2]	+++ (+++ = MIC ≦ 4)	>32 µg/mL	++ (++ = 4 < MIC < 12)	++ (++ = 4 < MIC < 12)	++ (++ = 4 < MIC < 12)	++ (++ = 4 < MIC < 12)
–	–	–	–	–	–	Cn1cc(NC(=O)c2cc(NC(=O)c3cc(NC(=O)c4ccc(F)cc4F)c[nH]3)c[nH]2)cc1C(=O)NCCN1CCOCC1 [Compound C-3]	+++ (+++ = MIC ≦ 4)	>32 µg/mL	++ (++ = 4 < MIC < 12)	+ (+ = 12 ≦ MIC ≦ 32)	+ (+ = 12 ≦ MIC ≦ 32)	+ (+ = 12 ≦ MIC ≦ 32)
–	–	–	–	–	–	Cn1cc(NC(=O)c2cc(NC(=O)c3cc(NC(=O)c4ccc(F)cc4F)cn3C)cn2CCCO)cc1C(=O)NCCN1CCOCC1 [Compound C-4]	+++ (+++ = MIC ≦ 4)	>32 µg/mL	+ (+ = 12 ≦ MIC ≦ 32)	+ (+ = 12 ≦ MIC ≦ 32)	+ (+ = 12 ≦ MIC ≦ 32)	+ (+ = 12 ≦ MIC ≦ 32)
–	–	–	–	–	–	Cn1cc(NC(=O)c2cc(NC(=O)c3cc(NC(=O)c4ccc(F)cc4F)c[nH]3)cn2CCCO)cc1C(=O)NCCN1CCOCC1 [Compound C-5]	+++ (+++ = MIC ≦ 4)	>32 µg/mL	+ (+ = 12 ≦ MIC ≦ 32)	+ (+ = 12 ≦ MIC ≦ 32)	+ (+ = 12 ≦ MIC ≦ 32)	+ (+ = 12 ≦ MIC ≦ 32)
–	–	–	–	–	–	Cn1cc(NC(=O)c2cc(NC(=O)c3cc(NC(=O)c4ccc(F)cc4F)cn3CCCO)cn2C)cc1C(=O)NCCN1CCOCC1 [Compound C-6]	+++ (+++ = MIC ≦ 4)	>32 µg/mL	+ (+ = 12 ≦ MIC ≦ 32)	+ (+ = 12 ≦ MIC ≦ 32)	+ (+ = 12 ≦ MIC ≦ 32)	+ (+ = 12 ≦ MIC ≦ 32)
–	–	–	–	–	–	COCn1cc(NC(=O)c2ccc(F)cc2F)cc1C(=O)Nc1cc(C(=O)Nc2cc(C(=O)NCCN3CCOCC3)n(C)c2)n(C)c1 [Compound C-7]	+++ (+++ = MIC ≦ 4)	>32 µg/mL	+ (+ = 12 ≦ MIC ≦ 32)	++ (++ = 4 < MIC < 12)	+ (+ = 12 ≦ MIC ≦ 32)	+ (+ = 12 ≦ MIC ≦ 32)
–	–	–	–	–	–	Cn1cc(NC(=O)c2cc(NC(=O)c3ccc(Cl)cc3F)c[nH]2)cc1C(=O)Nc1c[nH]c(C(=O)NCCN2CCOCC2)c1 [Compound C-8]	+++ (+++ = MIC ≦ 4)	+++ (+++ = MIC ≦ 4)	+++ (+++ = MIC ≦ 4)	+++ (+++ = MIC ≦ 4)	+++ (+++ = MIC ≦ 4)	+++ (+++ = MIC ≦ 4)
–	–	–	–	–	–	Cn1cc(NC(=O)c2cc(NC(=O)c3cc(NC(=O)c4ccc(Cl)cc4F)cn3C)c[nH]2)cc1C(=O)NCCN1CCOCC1 [Compound C-10]	+++ (+++ = MIC ≦ 4)	+ (+ = 12 ≦ MIC ≦ 32)	+++ (+++ = MIC ≦ 4)	+++ (+++ = MIC ≦ 4)	+++ (+++ = MIC ≦ 4)	+++ (+++ = MIC ≦ 4)
